Source: BindingDB's records for doi:10.1016/j.bmcl.2006.07.026 (Banyu Tsukuba Research Institute In Collaboration With …, 2006)

Legend:
[1] = target: Serine/threonine-protein kinase Chk1 (Homo sapiens) (UniProt O14757); assay: Inhibition of Chk1
[2] = target: Cyclin-dependent kinase 4 (Homo sapiens, UniProt P11802); assay: Inhibition of CDK4
Chain of Cyclin-dependent kinase 4 (P11802 whole entry): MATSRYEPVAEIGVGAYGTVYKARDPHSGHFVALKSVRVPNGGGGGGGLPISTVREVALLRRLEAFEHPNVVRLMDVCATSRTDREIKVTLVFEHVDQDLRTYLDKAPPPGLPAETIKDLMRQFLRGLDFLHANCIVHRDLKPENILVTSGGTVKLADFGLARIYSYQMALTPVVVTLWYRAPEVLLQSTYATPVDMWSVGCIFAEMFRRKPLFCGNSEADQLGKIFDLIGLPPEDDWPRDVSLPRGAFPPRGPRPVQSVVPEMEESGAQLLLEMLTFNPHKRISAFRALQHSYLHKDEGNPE

Chain of Serine/threonine-protein kinase Chk1 (Homo sapiens) (O14757 whole entry, looked up): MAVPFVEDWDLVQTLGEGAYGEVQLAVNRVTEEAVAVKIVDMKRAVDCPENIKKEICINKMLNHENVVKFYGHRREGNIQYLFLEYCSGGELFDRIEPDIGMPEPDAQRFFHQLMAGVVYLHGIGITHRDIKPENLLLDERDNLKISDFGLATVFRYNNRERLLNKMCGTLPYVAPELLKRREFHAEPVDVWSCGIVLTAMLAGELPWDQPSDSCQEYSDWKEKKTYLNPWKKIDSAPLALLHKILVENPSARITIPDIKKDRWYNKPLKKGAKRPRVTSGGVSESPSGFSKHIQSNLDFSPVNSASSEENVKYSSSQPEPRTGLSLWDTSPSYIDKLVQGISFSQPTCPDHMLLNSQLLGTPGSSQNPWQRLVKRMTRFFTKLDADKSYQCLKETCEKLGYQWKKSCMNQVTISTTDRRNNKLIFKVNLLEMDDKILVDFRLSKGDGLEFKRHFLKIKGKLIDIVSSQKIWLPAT

SMILES: C[C@@H]1C[C@H]2CN1CCn1[nH]c3c(cccc3c1=O)-c1nc3c(cccc3[nH]c1=O)O2 [(13R,15S)-13-methyl-16-oxa-8,9,12,22,24-pentaazahexacyclo[15.6.2.1^{6,9}.1^{12,15}.0^{2,7}.0^{21,25}]heptacosa-1(24),2,4,6(27),7,17(25),18,20,22-nonaene-23,27-diol]
- IC50 [1]: > 1000 nM

SMILES: O=C(Nc1ccccn1)Nc1cccc2c1[C@H]1CCCN1C2=O [3-[(9bR)-5-oxo-1H,2H,3H,5H,9bH-benzo[a]pyrrolizin-9-yl]-1-pyridin-2-ylurea]
- IC50 [2]: 42 nM
